This passage reports Ki and EC50 results from US8067447B2, “Modulators of glucocorticoid receptor, AP-1, and/or NF-κB activity and use thereof” (Bristol-Myers Squibb Company, priority 2006, dated 2011).

Read-outs that look alike come from different tables or passages of the source.

In test [1] the target is T1, human full-length glucocorticoid receptor (Homo sapiens, UniProt P04150).
T1 construct: a cell lysate containing recombinantly expressed human full-length glucocorticoid receptor; purchased PanVera Co., Madison, Wis; P2816
T1 sequence (P04150 1-777): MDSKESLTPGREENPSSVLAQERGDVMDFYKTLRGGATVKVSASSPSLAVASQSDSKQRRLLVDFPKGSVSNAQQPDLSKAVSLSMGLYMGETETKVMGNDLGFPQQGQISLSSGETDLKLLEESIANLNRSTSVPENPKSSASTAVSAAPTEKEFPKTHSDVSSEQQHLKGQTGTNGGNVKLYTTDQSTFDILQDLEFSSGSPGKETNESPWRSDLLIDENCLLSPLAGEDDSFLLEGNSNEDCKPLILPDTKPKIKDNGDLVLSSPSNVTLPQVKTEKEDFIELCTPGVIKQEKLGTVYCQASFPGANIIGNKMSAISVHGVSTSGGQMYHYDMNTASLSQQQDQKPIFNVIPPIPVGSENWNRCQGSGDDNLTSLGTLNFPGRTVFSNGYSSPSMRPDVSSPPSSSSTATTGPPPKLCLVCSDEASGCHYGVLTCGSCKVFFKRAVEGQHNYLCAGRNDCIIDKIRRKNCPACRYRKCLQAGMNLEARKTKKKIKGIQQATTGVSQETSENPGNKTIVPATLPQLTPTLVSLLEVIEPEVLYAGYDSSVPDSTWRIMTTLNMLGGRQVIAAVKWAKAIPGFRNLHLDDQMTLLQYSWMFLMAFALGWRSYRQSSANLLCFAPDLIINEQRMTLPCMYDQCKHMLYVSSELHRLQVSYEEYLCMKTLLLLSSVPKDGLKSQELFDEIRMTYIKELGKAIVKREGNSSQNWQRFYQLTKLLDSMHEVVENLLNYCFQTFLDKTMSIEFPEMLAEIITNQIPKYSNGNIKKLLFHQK
The test is described as follows: Glucocorticoid Receptor Binding Assay (II), fluorescence polarization competitor kit (Fluormone GS1). As to conditions: cell lysate with recombinant human full-length GR, 1 nM Fluormone GS1, FP. The method, then:
In order to measure the binding of compounds on the glucocorticoid receptor a commercially available kit was used (Glucocorticoid receptor competitor assay kit, PanVera Co., Madison, Wis., P2816). Briefly, a cell lysate containing recombinantly expressed human full-length glucocorticoid receptor was mixed with a fluorescently labeled glucocorticoid (1 nM Fluormone GS1) in the presence or absence of test compound. After one hour at room temperature, the fluorescence polarization (FP) of the samples were measured.

Test [2] relates to AP-1 induced transcriptional activity. The test is described as follows: Cellular Transrepressional Assay (AP-1 luciferase reporter in A549 cells, PMA-activated). Format: cell-based. As to conditions: A549 cells with 7x AP-1 luciferase reporter, 10 ng/ml PMA, read-out: AP-1 (EC50, nM) (Cellular Transrepression Assay). Summed up: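 Test molecules spanning 0.1 nM to 40 μM were co-incubated 7 h with 10 ng/ml PMA in A549 cells stably carrying a 7× AP-1-driven luciferase plasmid. Repression, as % reduction of PMA-alone luminescence measured 10 min after reagent addition, was curve-fitted to give EC50s.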

As for `O=C(Nc1nncs1)C(c1ccccc1)C(c1ccccc1)c1ccc2[nH]ncc2c1` (single isomer, unassigned) [152-diast A, 3-(1H-Indazol-5-yl)-2,3-diphenyl-N-(1,3,4-thiadiazol-2-yl)propanamide], the Ki in test [1] was found to be 9.8 nM. Besides, the EC50 in test [2] (Homo sapiens, A549, 7 h) was found to be 2500 nM.

In the case of `O=C(Nc1nncs1)C(c1ccccc1)C(c1ccccc1)c1ccc2[nH]ncc2c1` (single isomer, unassigned) [152-diast B, 3-(1H-Indazol-5-yl)-2,3-diphenyl-N-(1,3,4-thiadiazol-2-yl)propanamide], the Ki in test [1] was 1150 nM. The EC50 in test [2] (7 hours) came to 5000 nM.

For the compound `CC(C)(C(=O)NC1CCCC1O)C(Cc1ccccc1)c1ccc2c(cnn2-c2ccc(F)cc2)c1` (single isomer, unassigned) [Example 124-isomerA], the Ki in test [1] turned out to be 7.5 nM. For the same compound, the EC50 in test [2] (7 hours) is more than 10000 nM.

For `CC(C)(C(=O)NC1CCCC1O)C(Cc1ccccc1)c1ccc2c(cnn2-c2ccc(F)cc2)c1` (single isomer, unassigned) [Example 124-isomerB], the Ki in test [1] stood at 2.3 nM. Also, in test [2] (7 hours), the EC50 is more than 10000 nM.

Take `CC(C)(C(=O)NC1CCCC1O)C(Cc1ccccc1)c1ccc2c(cnn2-c2ccc(F)cc2)c1` (single isomer, unassigned) [Example 124-isomerC]: the inhibition constant Ki in test [1] was 2.1 nM. The EC50 in test [2] (7 hours) was 1250 nM.

In the case of `CC(C)(C(=O)NC1CCCC1O)C(Cc1ccccc1)c1ccc2c(cnn2-c2ccc(F)cc2)c1` (single isomer, unassigned) [Example 124-isomerD], in test [1], the Ki came out at 0.64 nM. For the same compound, the EC50 in test [2] (7 hours) came out at 40 nM.

Regarding `CC(C)(C(=O)NC1CCCC1)C(Cc1ccccc1)c1ccc2c(cnn2-c2ccc(F)cc2)c1` (single isomer, unassigned) [Example 130, N-cyclopentyl-3-(1-(4-fluorophenyl)-1H-indazol-5-yl)-2,2-dimethyl-4-phenylbutanamide], in test [1], the Ki came out at 6.1 nM. For the same compound, in test [2] (Homo sapiens, A549, 7 h), the EC50 is more than 10000 nM.

For `CC(C)(C(=O)NC1CCCC1)C(Cc1ccccc1)c1ccc2c(cnn2-c2ccc(F)cc2)c1` (single isomer, unassigned) [Example 131, N-cyclopentyl-3-(1-(4-fluorophenyl)-1H-indazol-5-yl)-2,2-dimethyl-4-phenylbutanamide], the Ki in test [1] amounted to 3 nM. Further, the EC50 in test [2] (7 hours) was more than 10000 nM.

With `O=C(Nc1nncs1)C(c1ccccc1)C(c1ccccc1)c1ccc2c(cnn2-c2ccc(F)cc2)c1` (single isomer, unassigned) [Example 145-isomerA, 3-(1-(4-fluorophenyl)-1H-indazol-5-yl)-2,3-diphenyl-N-(1,3,4-thiadiazol-2-yl)propanamide], the Ki in test [1] came to 18 nM. The EC50 in test [2] (7 hours) stood at 5000 nM.

On to `O=C(Nc1nncs1)C(c1ccccc1)C(c1ccccc1)c1ccc2c(cnn2-c2ccc(F)cc2)c1` (single isomer, unassigned) [Example 145-isomerB, 3-(1-(4-fluorophenyl)-1H-indazol-5-yl)-2,3-diphenyl-N-(1,3,4-thiadiazol-2-yl)propanamide], for which the Ki in test [1] is 1.1 nM. Further, in test [2] (7 hours), the EC50 stood at 5 nM.

Take `O=C(Nc1nncs1)C(c1ccccc1)C(c1ccccc1)c1ccc2c(cnn2-c2ccc(F)cc2)c1` (single isomer, unassigned) [Example 145-isomerC, 3-(1-(4-fluorophenyl)-1H-indazol-5-yl)-2,3-diphenyl-N-(1,3,4-thiadiazol-2-yl)propanamide]: in test [1], the Ki was 555 nM. Moreover, in test [2] (7 hours), the EC50 was found to be 5000 nM.

On to `O=C(Nc1nncs1)C(c1ccccc1)C(c1ccccc1)c1ccc2c(cnn2-c2ccc(F)cc2)c1` (single isomer, unassigned) [Example 145-isomerD, 3-(1-(4-fluorophenyl)-1H-indazol-5-yl)-2,3-diphenyl-N-(1,3,4-thiadiazol-2-yl)propanamide], for which the Ki in test [1] came out at 2.4 nM. Besides, in test [2] (7 hours), the EC50 was found to be 45 nM.

Regarding `CCOC(=O)c1cccc(-n2ncc3cc([C@H](c4ccccc4)C(C)(C)C(=O)Nc4nncs4)ccc32)c1` (stereo in doubt) [Example 95, ethyl 3-(5-(3-(1,3,4-thiadiazol-2-ylamino)-2,2-dimethyl-3-oxo-1-phenylpropyl)-1H-indazol-1-yl)benzoate], in test [1], the Ki came to 496 nM. For the same compound, the EC50 in test [2] (Homo sapiens, A549, 7 h) is more than 10000 nM.

Turning to `Cc1ccccc1C(c1ccc2c(cnn2-c2ccc(F)cc2)c1)C(C)(C)C(=O)Nc1nccs1` (centres unmarked) [Example 40, 3-(1-(4-fluorophenyl)-1H-indazol-5-yl)-2,2-dimethyl-N-(thiazol-2-yl)-3-o-tolylpropanamide], in test [1], the Ki is 1.6 nM. For the same compound, in test [2] (Homo sapiens, A549, 7 h), the EC50 was determined as 2.1 nM.

As for `Cc1cccc(C(c2ccc3c(cnn3-c3ccc(F)cc3)c2)C(C)(C)C(=O)Nc2nccs2)c1` (centres unmarked) [Example 41, 3-(1-(4-fluorophenyl)-1H-indazol-5-yl)-2,2-dimethyl-N-(thiazol-2-yl)-3-m-tolylpropanamide], the Ki in test [1] amounted to 2.3 nM. Besides, in test [2] (Homo sapiens, A549, 7 h), the EC50 came out at 2.6 nM.

Regarding `Cc1ccc(C(c2ccc3c(cnn3-c3ccc(F)cc3)c2)C(C)(C)C(=O)Nc2nccs2)cc1` (centres unmarked) [Example 42, 3-(1-(4-fluorophenyl)-1H-indazol-5-yl)-2,2-dimethyl-N-(thiazol-2-yl)-3-p-tolylpropanamide], the Ki in test [1] was 1.9 nM. Besides, the EC50 in test [2] (Homo sapiens, A549, 7 h) was 3.9 nM.

In the case of `CC(C)(C(=O)Nc1nccs1)C(c1cccc(F)c1)c1ccc2c(cnn2-c2ccc(F)cc2)c1` (centres unmarked) [Example 43], in test [1], the Ki stood at 2.9 nM. Also, the EC50 in test [2] (Homo sapiens, A549, 7 h) was found to be 2.4 nM.

For the compound `CC(C)(C(=O)Nc1nccs1)C(c1ccc(F)cc1)c1ccc2c(cnn2-c2ccc(F)cc2)c1` (centres unmarked) [Example 44, 3-(4-fluorophenyl)-3-(1-(4-fluorophenyl)-1H-indazol-5-yl)-2,2-dimethyl-N-(thiazol-2-yl)propanamide], in test [1], the Ki came out at 2.4 nM. The EC50 in test [2] (Homo sapiens, A549, 7 h) stood at 14 nM.

Consider `C=CCC(c1ccc2c(cnn2-c2ccc(F)cc2)c1)C(C)(C)C(=O)Nc1nncs1` (centres unmarked) [Example 45, 3-(1-(4-fluorophenyl)-1H-indazol-5-yl)-2,2-dimethyl-N-(1,3,4-thiadazol-2-yl)hex-5-enamide], for which the Ki in test [1] is 2.6 nM. The EC50 in test [2] (Homo sapiens, A549, 7 h) amounted to 52 nM.

Take `CCCC(c1ccc2c(cnn2-c2ccc(F)cc2)c1)C(C)(C)C(=O)Nc1nncs1` (centres unmarked) [Example 46, 3-(1-(4-fluorophenyl)-1H-indazol-5-yl)-2,2-dimethyl-N-(1,3,4-thiadazol-2-yl)hexanamide]: in test [1], the Ki was 1.7 nM. The EC50 in test [2] (Homo sapiens, A549, 7 h) came to 18 nM.

In the case of `CC(C)(C(=O)Nc1nncs1)C(c1ccc2c(cnn2-c2ccc(F)cc2)c1)C1CC1` (centres unmarked) [Example 47, 3-cyclopropyl-3-(1-(4-fluorophenyl)-1H-indazol-5-yl)-2,2-dimethyl-N-(1,3,4-thiadiazol-2-yl)propanamide], in test [1], the Ki worked out at 1.7 nM. Moreover, the EC50 in test [2] (Homo sapiens, A549, 7 h) was 523 nM.

Take `CC(C)C(c1ccc2c(cnn2-c2ccc(F)cc2)c1)C(C)(C)C(=O)Nc1nncs1` (centres unmarked) [Example 48, 3-(1-(4-fluorophenyl)-1H-indazol-5-yl)-2,2,4-trimethyl-N-(1,3,4-thiadiazol-2-yl)pentanamide]: in test [1], the Ki came out at 2.4 nM. In addition, in test [2] (Homo sapiens, A549, 7 h), the EC50 was determined as 81 nM.

For the compound `Cc1ccccc1C(c1ccc2c(cnn2-c2ccc(F)cc2)c1)C(C)(C)C(=O)Nc1nncs1` (centres unmarked) [Example 49, 3-(1-(4-fluorophenyl)-1H-indazol-5-yl)-2,2-dimethyl-N-(1,3,4-thiadiazol-2-yl)-3-o-tolylpropanamide], the Ki in test [1] came to 1.1 nM. Besides, the concentration giving a half-maximal response (EC50) in test [2] (Homo sapiens, A549, 7 h) is 4.2 nM.

For the compound `Cc1cccc(C(c2ccc3c(cnn3-c3ccc(F)cc3)c2)C(C)(C)C(=O)Nc2nncs2)c1` (centres unmarked) [Example 50, 3-(1-(4-fluorophenyl)-1H-indazol-5-yl)-2,2-dimethyl-N-(1,3,4-thiadiazol-2-yl)-3-m-tolylpropanamide], the Ki in test [1] is 0.92 nM. Besides, in test [2] (Homo sapiens, A549, 7 h), the EC50 stood at 9.7 nM.

Turning to `Cc1ccc(C(c2ccc3c(cnn3-c3ccc(F)cc3)c2)C(C)(C)C(=O)Nc2nncs2)cc1` (centres unmarked) [Example 51, 3-(1-(4-fluorophenyl)-1H-indazol-5-yl)-2,2-dimethyl-N-(1,3,4-thiadiazol-2-yl)-3-p-tolylpropanamide], the Ki in test [1] turned out to be 1.8 nM. Besides, in test [2] (Homo sapiens, A549, 7 h), the EC50 came to 3.9 nM.
